Measured values taken from ChEMBL document CHEMBL3259626, “Discovery of the first potent and selective Mycobacterium tuberculosis Zmp1 inhibitor” (Bioorg Med Chem Lett, 2014).
pKi: −log10 of the molar value.

Assays:
[1] = Competitive inhibition of full length Mycobacterium tuberculosis recombinant ZMP1 expressed in Escherichia coli BL21(DE3) using MCA-Pro-Leu-Gly-Leu-Dpa-Ala-Arg-NH2 as substrate by sigma plot analysis
[2] = tested on: Mycobacterium tuberculosis; assay: Inhibition of full length Mycobacterium tuberculosis recombinant ZMP1 expressed in Escherichia coli BL21(DE3) using MCA-Pro-Leu-Gly-Leu-Dpa-Ala-Arg-NH2 as substrate at 100 uM by fluorometric analysis relative to control
[3] = molecular target: Neprilysin (Homo sapiens, UniProt P08473); assay: Inhibition of human neprilysin by fluorometric analysis
Neprilysin, sequence (P08473 whole entry): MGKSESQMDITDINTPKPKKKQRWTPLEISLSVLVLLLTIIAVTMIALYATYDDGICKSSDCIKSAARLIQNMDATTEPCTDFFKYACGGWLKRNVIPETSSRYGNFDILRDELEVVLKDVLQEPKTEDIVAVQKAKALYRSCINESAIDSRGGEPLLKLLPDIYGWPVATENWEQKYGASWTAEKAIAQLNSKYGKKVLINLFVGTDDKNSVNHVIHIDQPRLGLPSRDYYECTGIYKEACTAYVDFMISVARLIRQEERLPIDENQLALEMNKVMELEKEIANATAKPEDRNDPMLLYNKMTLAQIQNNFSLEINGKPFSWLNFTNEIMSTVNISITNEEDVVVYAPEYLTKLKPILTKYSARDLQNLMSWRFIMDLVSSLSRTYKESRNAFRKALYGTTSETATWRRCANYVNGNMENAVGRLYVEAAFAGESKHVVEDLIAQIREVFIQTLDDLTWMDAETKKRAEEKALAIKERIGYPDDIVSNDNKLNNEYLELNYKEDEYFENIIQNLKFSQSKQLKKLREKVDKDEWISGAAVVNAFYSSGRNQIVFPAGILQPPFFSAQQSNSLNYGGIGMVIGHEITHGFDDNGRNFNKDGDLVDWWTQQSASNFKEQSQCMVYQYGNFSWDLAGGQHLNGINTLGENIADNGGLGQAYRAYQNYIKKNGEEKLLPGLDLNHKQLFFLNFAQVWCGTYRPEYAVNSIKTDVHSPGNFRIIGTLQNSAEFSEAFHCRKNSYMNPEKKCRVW

[4] = Selectivity index, ratio of Ki for human neprilysin to Ki for full length Mycobacterium tuberculosis recombinant ZMP1

| SMILES | pKi [1] | inhibition [2] | also measured |
| --- | --- | --- | --- |
| O=C(O)c1ccc(/C=C2/SC(=S)N(C(Cc3ccccc3)C(=O)O)C2=O)cc1 (racemic) | 6.41 |  |  |
| COC(=O)c1ccc(/C=C2\SC(=S)N([C@H](Cc3ccccc3)C(=O)O)C2=O)cc1 | 5.24 |  |  |
| Cn1c(=O)c2c(nc(SCC(=O)O)n2Cc2ccc(Cl)cc2)n(C)c1=O |  | 28% |  |
| O=C(O)CN1C(=O)/C(=C2/Sc3ccccc3N2CCCS(=O)(=O)O)SC1=S | 5.32 |  |  |
| O=C(NC(Cc1ccccc1)C(=O)O)/C(=C/c1cccc([N+](=O)[O-])c1)NC(=O)c1ccco1 (stereo not drawn) |  | 54% |  |
| O=C(O)CCC(C(=O)O)N1C(=O)/C(=C\c2ccc(-c3cccc(Cl)c3Cl)o2)SC1=S (stereo not drawn) | 5.43 |  |  |
| O=C(O)CC(C(=O)O)N1C(=O)/C(=C\c2ccc(O)c(O)c2)SC1=S (stereo not drawn) | 5.57 |  |  |
| O=C(OCc1ccccc1)c1ccc(/C=C2\SC(=S)N([C@H](Cc3ccccc3)C(=O)O)C2=O)cc1 | 5.74 |  |  |
| O=C1/C(=C\c2ccc(-c3cccc([N+](=O)[O-])c3)o2)SC(=S)N1CCS(=O)(=O)O | 4.49 |  |  |
| O=C(O)c1ccc(/C=C2/SC(=S)N([C@H](Cc3ccccc3)C(=O)O)C2=O)cc1 | 7.03 |  | pKi [3]: 4.60; Ratio Ki [4]: 266 |
| C=Cc1[nH]c(C(C)NC(=O)c2ccc(=O)n(CC(=O)NCc3ccc(F)cc3)c2)nc1C (stereo not drawn) |  | 16% |  |
| O=S(=O)(O)CCCSc1sc2ccc(Cl)cc2[n+]1CCCS(=O)(=O)O | 4.48 | 78% |  |
| O=C(O)c1ccc(/C=C2/SC(=S)N([C@@H](Cc3ccccc3)C(=O)O)C2=O)cc1 | 5.77 |  | pKi [3]: 4.43; Ratio Ki [4]: 21.7 |
